Data on 20 compounds can be found in ChEMBL document CHEMBL1126964, “Antibacterial activity of long-chain alcohols: the role of hydrophobic alkyl groups” (1993).

Values after ≈ are worked out from the molar mass of the structure shown.

In one test the test system is Staphylococcus aureus. The test is described as follows: Minimum inhibitory concentration against Staphylococcus aureus was determined. Type of test: functional.
Another test concerns Cutibacterium acnes. Kind of test: Minimum inhibitory concentration against Propionibacterium acnes was determined. Type of test: functional.

For the compound `CCCCCCCCCCO` [DECANOL], the results for the MIC against Staphylococcus aureus and against Cutibacterium acnes were 50 µg/mL (≈ 316 µM) and 25 µg/mL (≈ 158 µM), respectively.
With `CCCCCCCCCCCCCCCCCCCCO` [1-EICOSANOL], the MIC in the test on Staphylococcus aureus and against Cutibacterium acnes was more than 800 µg/mL throughout.
With `CC(C)=CCC/C(C)=C/CCC(C)O` (stereo not given), the minimum inhibitory concentration (MIC) is 50 µg/mL (≈ 255 µM) with Staphylococcus aureus and 25 µg/mL (≈ 127 µM) against Cutibacterium acnes.
As for `CCCCCCCCCCCCCCO` [MYRISTYL ALCOHOL], the MIC was more than 800 µg/mL with Staphylococcus aureus and 1.56 µg/mL (≈ 7.28 µM) in the test with Cutibacterium acnes.
The like results for `C=CC(C)(O)CC/C=C(\C)CCC=C(C)C` (stereo not given) [NEROLIDOL] were, in that order, 50 µg/mL (≈ 225 µM) and 25 µg/mL (≈ 112 µM).
For the compound `C=CC(C)(O)CCC=C(C)C` (stereo not given) [LINALOOL], the MIC in the test on Staphylococcus aureus and in the test with Cutibacterium acnes was more than 800 µg/mL throughout.
Regarding `CCCCCCCO` [1-HEPTANOL], the minimum inhibitory concentration (MIC) against Staphylococcus aureus was more than 800 µg/mL; in the test on Cutibacterium acnes, 400 µg/mL (≈ 3440 µM).
In the case of `CCCCCCCCCCCCCCCCCCO` [CETOSTEARYL ALCOHOL], the MIC in the test on Staphylococcus aureus and in the test on Cutibacterium acnes was more than 800 µg/mL in each case.
With `CC(C)=CCC/C(C)=C/CO` [GERANIOL], the MIC against Staphylococcus aureus is 800 µg/mL (≈ 5190 µM); with Cutibacterium acnes, 400 µg/mL (≈ 2590 µM).
The like results for `CCCCCCCCCCCCCCCO` were, in that order, more than 800 µg/mL and 0.78 µg/mL (≈ 3.41 µM).
Consider `CCCCCCCCCCCCCCCCCO`, for which the MIC against Staphylococcus aureus and in the test with Cutibacterium acnes was more than 800 µg/mL throughout.
Regarding `CCCCCCCCO` [OCTANOL], the minimal inhibitory concentration (MIC) came out at 800 µg/mL (≈ 6140 µM) against Staphylococcus aureus and 200 µg/mL (≈ 1540 µM) against Cutibacterium acnes.
Regarding `CC(C)=CCC/C(C)=C/CC/C(C)=C/CCC(C)O` (stereo not given), the figures for the minimum inhibitory concentration (MIC) in the test with Staphylococcus aureus and in the test with Cutibacterium acnes were more than 800 µg/mL and 1.56 µg/mL (≈ 5.9 µM), respectively.
The like results for `CC(C)=CCC/C(C)=C/CC/C(C)=C/CO` [FARNESOL] were, in that order, 6.25 µg/mL (≈ 28.1 µM) and 6.25 µg/mL (≈ 28.1 µM).
With `CCCCCCO` [1-HEXANOL], the MIC with Staphylococcus aureus and in the test with Cutibacterium acnes was more than 800 µg/mL throughout.
As to `CCCCCCCCCCCCCCCCO` [CETYL ALCOHOL], the values for the MIC against Staphylococcus aureus and against Cutibacterium acnes were more than 800 µg/mL and 0.78 µg/mL (≈ 3.22 µM), respectively.
Regarding `CCCCCCCCCCCCCO` [TRIDECAN-1-OL], the figures for the MIC in the test on Staphylococcus aureus and against Cutibacterium acnes were more than 800 µg/mL and 1.56 µg/mL (≈ 7.79 µM), respectively.
As to `CCCCCCCCCO` [NONANOL], the MIC in the test on Staphylococcus aureus amounted to 200 µg/mL (≈ 1390 µM); with Cutibacterium acnes, 100 µg/mL (≈ 693 µM).
In the case of `CCCCCCCCCCCCO` [DODECANOL], the minimum inhibitory concentration (MIC) against Staphylococcus aureus is 6.25 µg/mL (≈ 33.5 µM); with Cutibacterium acnes it was 3.13 µg/mL (≈ 16.8 µM).
`CCCCCCCCCCCO` [UNDECANOL]: the MIC is 25 µg/mL (≈ 145 µM) in the test on Staphylococcus aureus and 12.5 µg/mL (≈ 72.5 µM) with Cutibacterium acnes.
